US7087756B2, “Isoxazolopyridinones” (Novartis AG, priority 2001, dated 2006)
pEC50: −log10 of the molar value.

Target: Nurr1 receptor (Homo sapiens, UniProt P43354)
Assay: Transactivation of a Nurr1 responsive reporter gene in a midbrain dopaminergic cell line
Format: cell-based
Details: read-out: EC50 of increase of reporter gene activity
Excerpt: The activity of the agents of the invention at the Nurr1 receptor can be determined in vitro in cellular assays:
Induction of the biological activity of the Nurr1 receptor by the agents of the invention can be measured by the transactivation of a Nurr1 responsive reporter gene in a midbrain dopaminergic cell line. The assay is based on the transcription promoting effect of Nurr1. The reporter gene can be activated both by Nurr1 monomers and Nurr1/RXR heterodimers. RXR is a frequent heterodimerisation partner of nuclear receptors and it has been shown that Nurr1 can form heterodimers with RXR (Zetterström RH et al. Mol. Endocrinol. 1996; 10:1656–1666).

Nurr1 receptor, sequence (P43354 whole entry): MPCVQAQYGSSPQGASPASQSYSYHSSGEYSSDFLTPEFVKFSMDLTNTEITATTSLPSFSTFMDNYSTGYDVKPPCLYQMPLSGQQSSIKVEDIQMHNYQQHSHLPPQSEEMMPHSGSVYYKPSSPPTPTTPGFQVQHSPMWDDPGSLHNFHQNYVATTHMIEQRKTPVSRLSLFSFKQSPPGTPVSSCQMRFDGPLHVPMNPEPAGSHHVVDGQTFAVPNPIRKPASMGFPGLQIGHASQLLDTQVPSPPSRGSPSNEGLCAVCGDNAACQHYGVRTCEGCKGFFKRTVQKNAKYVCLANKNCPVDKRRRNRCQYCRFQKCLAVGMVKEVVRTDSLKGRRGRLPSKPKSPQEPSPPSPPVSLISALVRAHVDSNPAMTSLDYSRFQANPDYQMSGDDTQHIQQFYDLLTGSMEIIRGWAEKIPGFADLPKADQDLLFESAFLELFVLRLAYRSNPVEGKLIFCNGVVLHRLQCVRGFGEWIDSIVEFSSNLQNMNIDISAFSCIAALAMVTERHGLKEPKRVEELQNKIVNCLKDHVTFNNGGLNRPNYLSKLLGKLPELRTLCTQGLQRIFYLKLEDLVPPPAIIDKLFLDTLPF

pEC50 | SMILES
7.40 | COCCOCc1ccc(-c2cc3onc(-c4ccccc4)c3c(=O)n2C)cc1 [Example 7, 6-[4-(2-Methoxy-ethoxymethyl)-phenyl]-5-methyl-3-phenyl-5H-isoxazolo[4,5-c]pyridin-4-one]
7.15 | CN(C)Cc1ccc(-c2cc3onc(-c4ccccc4)c3c(=O)[nH]2)cc1 [Example 11, 6-(4-Dimethylaminomethyl-phenyl)-3-phenyl-5H-isoxazolo[4,5-c]pyridin-4-one]
